Results as given in US6329378A, “Hydrazone, hydrazine and thiosemicarbazone derivatives as antifungal agents” (Anadys Pharmaceuticals, Inc., priority 2000, dated 2001).
In brackets after ≈: the same amount, converted by molar mass.

Tests used:
C. albicans [1] = experiment: MIC, broth microdilution (NCCLS M27-A), C. albicans; assay type: cell-based, Candida albicans; details: 48 hours, C. albicans ATCC 10231; for MIC C. albicans: 35° C.; for MIC: Candida albicans, ATCC10231, 35° C.
Description: (§1) Compounds of the invention were tested for antifungal susceptibility using broth microdilution assay established by the National Committee for Clinical Laboratory Standards, in NCCLS Document M27-A, which is hereby incorporated by reference. Minimum inhibitory concentrations (MICs) and minimum fungicidal concentrations (MFCs) were measured.
(§2) Yeasts (Saccharomyces cerevisiae and Candida albicans) are cultured on SDA plates in a 35° C. incubator. Strains on SDA plates are stored at 4° C. and used as working stock cultures.
(§3) Inoculum for susceptibility testing is prepared from fresh 24 hour cultures. 5-10 colonies are scraped from the plate and suspended in three milliliters of sterile 0.85% saline (8.5 g/liter NaCl). The cell density of the solution is determined by measuring the absorbance in a spectrophotometer (Shimadzu UV-1201S UV-VIS Spectrophotometer) set at 600 nm. An absorbance value between 0.1 and 0.4 is required for an accurate reading.
(§4) For Candida albicans strains ATCC 10231, 1.0 OD600 unit is approximately 10^7 cells per ml. For Saccharomyces cerevisiae strain CTY552, 1.0 OD600 unit is slightly less than 10^7 cells per ml. Cell suspensions are diluted with the appropriate medium (typically RPMI-1640) to OD600 =0.0003 for Candida and OD600 =0.0004 for Saccharomyces. The diluted suspension contains approximately 3×10^3 cells per ml (this is a 2×concentration inoculum). Two 100 μl aliquots of this dilution are spread on SDA plates and incubated at 35° C. for 1-2 days to determine the precise number of colony forming units. An acceptable range for the inoculum (2×) is 1-5×10^3 cfu/ml (100-500 for 100 μl). Following two-fold dilution of the inoculum with compound, the final concentration of cells will be 0.5-2.5×10^3 per ml. The inoculum is kept at 4° C. and used within a few hours.
(§5) Stock solutions and concentrations tested will vary from compound to compound. In general, though, stock solutions of 12.8 mg/ml in DMSO (Sigma D-8779) are prepared. This will allow for a 128 μg/ml starting test concentration containing 1% DMSO. Stock solutions are stored at -20° C. and dilutions for antifungal testing are freshly prepared before each assay.
(§6) Stock solutions of Amphotericin B and Itraconazole are prepared at 1.6 mg/ml in DMSO. Amphotericin B is sold as a powder that is approximately 80% Amphotericin B. Stock solutions are made accordingly (2.0 mg of powder for a 1 ml solution of 1.6 mg/ml Amphotericin B).
(§7) Both of these (control and test compounds) represent 1:50 dilutions. For an assay with three fungal strains, 40 microliters of a stock solution are diluted to 2.0 ml with room temperature medium.
(§8) Antifungal susceptibility tests are setup in polystyrene, 96-well, flat bottom plates (Costar 9017). To every well in columns 2-12 is added 100 microliters of media. An electronic multichannel (12) pipettor with no tip on channel one is used. To every well in column one is added 200 microliters of diluted compound (32 μg/ml for Amphotericin B and Itraconazole controls, 256 μg/ml for test compounds, 100-fold dilution for natural product extracts). A manual multichannel (8) pipettor is then used to set up a series of 2-fold dilutions. 100 microliters is removed from each well of column one and mixed with 100 microliters in column 2. This is done successively (column two to column three etc.) to produce a set of 11 serial dilutions (column 12 is a drug free control).
(§9) To every well in two rows, 100 μl of inoculum (2×) of a single strain is added. To the final two rows on the plate (G & H), only media is added. Addition of inoculum is best accomplished using an electronic multichannel (12) pipettor. This setup (see below) creates a starting cell density of […] (100-500 per well) and drug concentration ranging from 16 μg/ml to […] for controls (Amphotericin B and Itraconazole), 128 μg/ml to 0.125 μg/ml for pure test compounds, and 200 to 204, 800-fold dilutions for natural product extracts.

C. albicans [2] = experiment: Minimum fungicidal concentration (MFC), C. albicans; assay type: cell-based, Candida albicans; details: viability on SDA plate, 35° C.; for MFC: Candida albicans
Description: as §1, §2, §3, §4, §5, §6
(§10) Stock solutions of control compounds (1.6 mg/ml, Amphotericin B or Itraconazole) are initially diluted in medium to a concentration of 32 μg/ml while stock solutions of test compounds (typically 12.8 mg/ml) are diluted to 256 μg/ml. Both of these (control and test compounds) represent 1:50 dilutions. For an assay with three fungal strains, 40 microliters of a stock solution are diluted to 2.0 ml with room temperature medium.
as §8
(§11) To every well in two rows, 100 μl of inoculum (2×) of a single strain is added. To the final two rows on the plate (G & H), only media is added. Addition of inoculum is best accomplished using an electronic multichannel (12) pipettor. […]

A. Nidulans = experiment: MIC, broth microdilution (NCCLS M27-A), A. nidulans; assay type: cell-based; details: 35° C., 48 hours; for MIC: Aspergillus nidulans
Description: as §1
Filamentous fungi (Aspergillus spp.) is cultured on PDA plates in a 35° C. incubator. Inoculum of Aspergillus for susceptibility testing is prepared from plates incubated at 35° C. for 5 days. Colonies are covered with 5 ml of sterile 0.85% saline (8.5 g/liter NaCl) and gently rocked for 10-15 minutes. To dislodge the conidia, an automatic pipettor is used to gently wash over the colonies. The saline solution is removed from the plate and the heavy particles are allowed to settle for 3-5 minutes. The upper suspension is removed and vortexed for 15 sec. The turbidity of the solution is determined by measuring the absorbance in a spectrophotometer (Shimadzu UV-1201S UV-VIS Spectrophotometer) set at 600 nm. An absorbance value between 0.1 and 0.4 is required for an accurate reading.
The cell suspension is diluted with the appropriate medium (typically RPMI-1640) to OD600 =0.0004. The final suspension should contain approximately 3×10^3 cfu per ml (this is a 2×concentrationinoculum). Two 100 μl aliquots of this dilution are spread on SDA plates and incubated at 35° C. for 1-2 days to determine the precise number of colony forming units. An acceptable range for the inoculum (2×) is 1-5×10^3 cfu/ml (100-500 for 100 μl). Following two-fold dilution of the inoculum with compound, the final concentration of cells will be 0.5-2.5×10^3 per ml. The inoculum is kept at 4° C. and used within a few hours.
as §5, §6, §7, §8, §9

S. serevisiae = experiment: MIC, broth microdilution (NCCLS M27-A), S. cerevisiae; assay type: cell-based, Saccharomyces cerevisiae; details: for MIC S. serevisiae: broth microdilution, 35° C., 48 hours, S. cerevisiae CTY552; for MIC: Saccharomyces cerevisiae, 48 h, read-out: MIC S. serevisiae
Description: as §1, §2, §3, §4, §5, §6, §10, §8, §11

| Molecule | MIC C. albicans (C. albicans [1]) | MFC C. albicans (C. albicans [2]) | MIC A. Nidulans (A. Nidulans) | MIC S. serevisiae (S. serevisiae) | MIC (C. albicans [1]) | MFC (C. albicans [2]) | MIC (A. Nidulans) | MIC (S. serevisiae) |
| --- | --- | --- | --- | --- | --- | --- | --- | --- |
| 3,5-dichloro-2-hydroxybenzaldehyde-N-(3-chloro-2-pyrazinyl)hydrazine [(16)] | 8 µg/mL | > 128 µg/mL | 128 µg/mL | 8 µg/mL | – | – | – | – |
| COc1nccnc1N/N=C/c1cc(Cl)cc(Cl)c1O [(1), 3,5-dichloro-2-hydroxybenzaldehyde-N-(3-methoxy-2-pyrazinyl)hydrazone] | – | – | – | – | 1 µg/mL (≈ 3.19 µM) | > 128 µg/mL | 2 µg/mL (≈ 6.39 µM) | 1 µg/mL (≈ 3.19 µM) |
| COc1nccnc1NN=Cc1cc(Cl)ccc1O [(2)] | – | – | – | – | 1 µg/mL (≈ 3.59 µM) | > 128 µg/mL | 2 µg/mL (≈ 7.18 µM) | 1 µg/mL (≈ 3.59 µM) |
| COc1nccnc1NN=Cc1cccc(F)c1O [(3)] | – | – | – | – | 0.5 µg/mL (≈ 1.91 µM) | > 128 µg/mL | 2 µg/mL (≈ 7.63 µM) | 1 µg/mL (≈ 3.81 µM) |
| COc1nccnc1NN=Cc1ccccc1O [(4)] | – | – | – | – | 1 µg/mL (≈ 4.09 µM) | > 128 µg/mL | 2 µg/mL (≈ 8.19 µM) | 1 µg/mL (≈ 4.09 µM) |
| COc1nccnc1N/N=C/c1ccccn1 [(10)] | – | – | – | – | 2 µg/mL (≈ 8.72 µM) | > 128 µg/mL | 2 µg/mL (≈ 8.72 µM) | 1 µg/mL (≈ 4.36 µM) |
| CCOc1cccc(C=NNc2nccnc2OC)c1O [(11), 3-ethoxy-2-hydroxybenzaldehyde-N-(3-methoxy-2-pyrazinyl)hydrazone] | – | – | – | – | 2 µg/mL (≈ 6.94 µM) | > 128 µg/mL | 2 µg/mL (≈ 6.94 µM) | 1 µg/mL (≈ 3.47 µM) |
| COc1nccnc1NN=Cc1cccc([N+](=O)[O-])c1O [(12), 2-hydroxy-3-nitrobenzaldehyde-N-(3-methoxy-2-pyrazinyl)hydrazone] | – | – | – | – | 4 µg/mL (≈ 13.8 µM) | > 128 µg/mL | 8 µg/mL (≈ 27.7 µM) | 4 µg/mL (≈ 13.8 µM) |
| COc1ccc(C=NNc2nccnc2OC)c(O)c1 [(13), 2-hydroxy-4-methoxybenzaldehyde-N-(3-methoxy-2-pyrazinyl)hydrazone] | – | – | – | – | 1 µg/mL (≈ 3.65 µM) | > 128 µg/mL | 4 µg/mL (≈ 14.6 µM) | 0.5 µg/mL (≈ 1.82 µM) |
| COc1cc(Br)cc(C=NNc2nccnc2OC)c1O [(14), 5-bromo-2-hydroxy-3-methoxybenzaldehyde-N-(3-methoxy-2-pyrazinyl)hydrazone] | – | – | – | – | 0.5 µg/mL (≈ 1.42 µM) | > 128 µg/mL | 1 µg/mL (≈ 2.83 µM) | 0.5 µg/mL (≈ 1.42 µM) |
| COc1ccc(Br)c(C=NNc2nccnc2OC)c1O [(15), 6-bromo-2-hydroxy-3-methoxybenzaldehyde-N-(3-methoxy-2-pyrazinyl)hydrazone] | – | – | – | – | 1 µg/mL (≈ 2.83 µM) | > 128 µg/mL | 8 µg/mL (≈ 22.7 µM) | 1 µg/mL (≈ 2.83 µM) |
| Oc1c(Cl)cc(Cl)cc1/C=N/NC(=S)Nc1cc(C(F)(F)F)cc(C(F)(F)F)c1 [(35), N-[3,5bis(trifluoromethyl)phenyl]-2-[(E)-(3,5-dichloro-2-hydroxyphenyl)methylidene]-1-hydrazonecarbothioamide] | – | – | – | – | 2 µg/mL (≈ 4.2 µM) | > 128 µg/mL | 4 µg/mL (≈ 8.4 µM) | 2 µg/mL (≈ 4.2 µM) |
| Oc1cc(OCc2ccccc2)ccc1/C=N/NC(=S)Nc1cccc(C(F)(F)F)c1 [(42)] | – | – | – | – | 0.25 µg/mL (≈ 0.561 µM) | > 128 µg/mL | 0.25 µg/mL (≈ 0.561 µM) | 0.25 µg/mL (≈ 0.561 µM) |
| O=C(O)c1ccc(COc2ccc(/C=N/NC(=S)Nc3ccc(Cl)cc3)c(O)c2)cc1 [(47), N-[(4-chloro-phenyl)]-2-[(E)-(4-carboxyl-benzyloxy-2-hydroxyphenyl)methylidene]-1-hydrazonecarbothiamide] | – | – | – | – | 2 µg/mL (≈ 4.39 µM) | – | 0.5 µg/mL (≈ 1.1 µM) | 1 µg/mL (≈ 2.19 µM) |
| CCN(CC)c1ccc(/C=N/NC(=S)Nc2cccc(C(F)(F)F)c2)c(O)c1 [(48)] | – | – | – | – | 1 µg/mL (≈ 2.44 µM) | > 128 µg/mL | 0.5 µg/mL (≈ 1.22 µM) | 0.5 µg/mL (≈ 1.22 µM) |
| Oc1cc(N2CCOCC2)ccc1/C=N/NC(=S)Nc1cccc(C(F)(F)F)c1 [(49)] | – | – | – | – | 2 µg/mL (≈ 4.71 µM) | > 128 µg/mL | 0.5 µg/mL (≈ 1.18 µM) | 1 µg/mL (≈ 2.36 µM) |
| Cc1cc(C)cc(NC(=S)N/N=C/c2ccc(OCc3ccccc3)cc2O)c1 [(50)] | 1 µg/mL (≈ 2.47 µM) | – | 0.5 µg/mL (≈ 1.23 µM) | 0.5 µg/mL (≈ 1.23 µM) | – | – | – | – |
| O=S(=O)(c1ccc(NC(=S)N/N=C/c2ccc(OCc3ccccc3)cc2O)cc1)N1CCCCC1 [(51)] | 16 µg/mL (≈ 30.5 µM) | – | 1 µg/mL (≈ 1.91 µM) | 0.5 µg/mL (≈ 0.953 µM) | – | – | – | – |
| N-[(3-trifluoromethyl)phenyl)]-2-[(E)-(4-allyl-phenyl)-benzyloxy-2-hydroxyphenyl)methylidene]-1-hydrazonecarbothiamide [(44)] | 8 µg/mL | – | 2 µg/mL | 2 µg/mL | – | – | – | – |
